Biological target: T1, Oryza sativa αDOX (SEQ ID NO: 1), fatty acid alpha-dioxygenase, Q9M5J1, N-terminal His-tag variant SEQ ID NO: 249 (Oryza sativa subsp. japonica, UniProt Q2QRV3)
T1 construct: made in house; host or cells: Escherichia coli BL21 (DE3), pET30a
T1 sequence (Q2QRV3 1-618): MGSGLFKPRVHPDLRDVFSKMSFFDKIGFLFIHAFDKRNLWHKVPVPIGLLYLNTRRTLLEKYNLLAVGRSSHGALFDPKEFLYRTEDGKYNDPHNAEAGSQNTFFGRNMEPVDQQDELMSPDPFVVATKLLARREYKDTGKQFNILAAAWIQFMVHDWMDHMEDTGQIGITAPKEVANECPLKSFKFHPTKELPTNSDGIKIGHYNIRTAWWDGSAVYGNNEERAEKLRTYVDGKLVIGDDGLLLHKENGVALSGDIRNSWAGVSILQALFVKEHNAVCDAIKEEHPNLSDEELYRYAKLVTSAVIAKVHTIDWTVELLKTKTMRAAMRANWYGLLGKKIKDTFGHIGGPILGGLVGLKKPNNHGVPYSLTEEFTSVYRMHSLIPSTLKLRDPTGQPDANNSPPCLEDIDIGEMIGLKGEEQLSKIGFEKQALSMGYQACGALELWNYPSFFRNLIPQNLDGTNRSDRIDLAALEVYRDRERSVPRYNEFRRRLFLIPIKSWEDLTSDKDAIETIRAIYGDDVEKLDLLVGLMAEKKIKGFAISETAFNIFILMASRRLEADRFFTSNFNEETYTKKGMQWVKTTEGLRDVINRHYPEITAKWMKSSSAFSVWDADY
Test: Alpha-dioxygenase activity assay (oxygen consumption, TON)
Type: biochemical
Conditions: fatty acid 100 µM, enzyme 6 ppm, 50 mM HEPES pH 9.0, 37°C; initial rate of oxygen consumption / enzyme concentration
Excerpt: Oryza sativa αDOX (SEQ ID NO: 1) is a fatty acid alpha-dioxygenase that converts fatty acids into the corresponding 2-hydroperoxy fatty acids and is included as an example of the present invention. A codon optimized gene (SEQ ID NO: 248) encoding for an alpha-dioxygenase variant (SEQ ID NO: 249), including an N-terminal amino acid sequence containing a His-tag was designed and synthesized by Genscript. After gene synthesis, the protein was expressed and purified. In brief, the complete synthetic gene sequence was subcloned into a pET30a vector using the NdeI/HindIII cloning sites. For heterologous expression, Escherichia coli BL21 (DE3) cells were transformed with the recombinant plasmid and a single colony was inoculated into LB medium containing kanamycin (50 mg/L). A pre-starter culture was then inoculated into flasks containing Magic Media (Thermo Fisher, Catalog # K6803) supplemented with kanamycin (50 mg/L) and incubated at 16 °C for 72 h. At an OD600nm = 0.5 - 1.0, 5-aminolevulinic acid (final concentration 0.5 mM) was added. Cells were harvested by centrifugation at 5000 rpm and 4°C and the pellet was lysed using a bacterial cell lysis buffer (B-PER - Themo Fisher, Waltham, MA). After centrifugation, the supernatant was collected, and the protein was purified by one-step purification using HisPur™ Ni-NTA Spin Columns (Thermo Scientific, Catalog # 88226) and standard protocols known in the art. The protein was concentrated using a 10 kDa MW cutoff Amicon Ultra centrifugal filter unit (Millipore Sigma, Catalog# UFC901024), followed by desalting using a disposable PD-10 desalting column (GE Healthcare Life Sciences, Catalog# 17085101) and a buffer containing 50 mM Tris-HCl, 500 mM NaCl, and 10% Glycerol at pH 8.0. […]
Reactions with alpha-dioxygenases were performed as follows. […] The reaction was incubated for up to 10 minutes at 37°C with 200 rpm agitation and the conversion was monitored using an oxygen sensor. The TON (in s-1) were calculated as the ratio between the initial rate of oxygen consumption (in µM/s) and the concentration of enzyme (in µM). […]

CCCCCCCC/C=C\CCCCCCCC(=O)O [Oleic Acid]
Oleic Acid, TON: 5.54 s⁻¹

CCCCCCCCCCCCCCCC(=O)O [Palmitic Acid]
Palmitic Acid, TON: 20.58 s⁻¹

CCCCCCCCCCCCCCCCCC(=O)O [Stearic Acid]
Stearic Acid, TON: 8.02 s⁻¹

Source: patent EP3981864A1, “DETERGENT COMPOSITION” (priority 2020, dated 2022)
